Data reported in ChEMBL document CHEMBL4321855, “Targeting CXCR1/2: The medicinal potential as cancer immunotherapy agents, antagonists research highlights and challenges ahead” (Eur J Med Chem, 2020).
Each block holds one molecule with its values, some of them ahead of it.

How the values were obtained:
[1] = target: T1, C-X-C chemokine receptor type 2 (Homo sapiens, UniProt P25025); assay: Antagonist activity at CXCR2 (unknown origin)
T1 sequence (P25025 whole entry): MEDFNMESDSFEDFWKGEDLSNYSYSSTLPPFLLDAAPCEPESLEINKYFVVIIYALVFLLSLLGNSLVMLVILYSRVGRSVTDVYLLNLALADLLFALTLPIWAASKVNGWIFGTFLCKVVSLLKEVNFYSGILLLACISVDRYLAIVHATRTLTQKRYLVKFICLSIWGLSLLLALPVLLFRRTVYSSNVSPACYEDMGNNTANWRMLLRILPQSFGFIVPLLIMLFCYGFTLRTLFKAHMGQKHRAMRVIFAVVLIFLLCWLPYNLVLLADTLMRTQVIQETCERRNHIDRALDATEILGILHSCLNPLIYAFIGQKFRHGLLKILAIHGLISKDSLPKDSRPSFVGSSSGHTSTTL

[2] = target: T1, C-X-C chemokine receptor type 2; assay: Antagonist activity at CXCR2 (unknown origin) expressed in human U2OS cells cp-expressing betaarrestin-2/TEV protease and beta lactamase assessed as effect on beta-arrestin2 recruitment preincubated for 30 mins followed by IL-8 addition and further incubated for 5 hrs subsequently adding CCF4-AM staining and measured after 2 hrs by Tango assay; assay type: cell-based
A375-SM [3] = assay: Antitumor activity against human A375SM cells xenografted in athymic nude mice assessed as reduction in tumor volume at 100 mg/kg, po for 21 days; assay type: functional
A375-SM [4] = assay: Antitumor activity against human A375SM cells xenografted in athymic nude mice assessed as reduction in blood vessels formation at 100 mg/kg, po for 21 days and measured on day 50 by immunohistochemistry relative to control; assay type: functional; parameters: scale not given: the % may be the effect or the level left
[5] = target: T1, C-X-C chemokine receptor type 2; assay: Antagonist activity at CXCR2 in human U2OS cells assessed as effect on beta-arrestin2 recruitment by CCF4-AM staining based Tango assay; assay type: cell-based
[6] = target: T2, C-X-C chemokine receptor type 1 (Homo sapiens, UniProt P25024); assay: Displacement of [125I]IL-8 from CXCR1 in human neutrophils incubated for 3 hrs by gamma counting method
T2 sequence (P25024 whole entry): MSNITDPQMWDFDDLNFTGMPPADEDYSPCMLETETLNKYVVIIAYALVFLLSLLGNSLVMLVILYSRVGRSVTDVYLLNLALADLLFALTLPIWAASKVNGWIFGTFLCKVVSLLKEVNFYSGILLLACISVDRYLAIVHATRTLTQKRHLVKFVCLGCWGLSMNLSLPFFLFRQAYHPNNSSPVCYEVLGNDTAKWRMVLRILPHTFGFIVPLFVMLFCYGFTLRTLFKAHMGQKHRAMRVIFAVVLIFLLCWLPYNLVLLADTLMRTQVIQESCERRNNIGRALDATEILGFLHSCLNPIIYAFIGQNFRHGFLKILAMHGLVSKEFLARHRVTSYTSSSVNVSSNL

[7] = target: T1, C-X-C chemokine receptor type 2; assay: Displacement of [125I]IL-8 from CXCR2 in human neutrophils incubated for 3 hrs by gamma counting method
SK-OV-3 = assay: Antitumor activity against human SKOV3 cells xenografted in athymic Nu/Nu mouse assessed as reduction in tumor volume at 10 mg/kg/day, ip co-treated with sorafenib 30 mg/kg, po relative to sorafenib alone; assay type: functional; parameters: scale not given: the % may be the effect or the level left
Homo sapiens [8] = species: Homo sapiens; assay: Selectivity ratio of IC50 for displacement of [125I]IL-8 from CXCR1 (unknown origin) to IC50 for displacement of [125I]IL-8 from CXCR2 (unknown origin)
[9] = target: T3, C-X-C chemokine receptor type 2 (Homo sapiens) (UniProt P25025); assay: Displacement of [125I]-IL-8 from human CXCR2 expressed in CHO cells membrane at 20 uM relative to control; assay type: cell membranes
T3 sequence (whole entry): T1 sequence (P25025 whole entry)

[10] = target: T1, C-X-C chemokine receptor type 2; assay: Antagonist activity at GFP-tagged CXCR2 (unknown origin) expressed in 293T cells assessed as suppression of IL-8-induced inhibition of forskolin-stimulated cAMP accumulation preincubated for 10 mins followed by IL-8 addition and measured after 10 mins by cAMP assay; assay type: functional, cell-based
[11] = target: T1, C-X-C chemokine receptor type 2; assay: Antagonist activity at CXCR2 in human neutrophils assessed as reduction in GROalpha stimulated intracellular calcium mobilisation by FLIPR assay; assay type: functional, cell-based
[12] = Oral bioavailability in rat; assay type: ADME, organism-based; details: in vivo
[13] = target: T2, C-X-C chemokine receptor type 1; assay: Antagonist activity at CXCR1 (unknown origin) stably expressed in HEK293 cells co-expressing Galpha16 assessed as reduction in IL-8-induced intracellular calcium change incubated for 10 mins by Fluo-4AM dye based fluorescence assay; assay type: functional, cell-based
Homo sapiens [14] = species: Homo sapiens; assay: Selectivity ratio of IC50 for antagonist activity at CXCR1 (unknown origin) stably expressed in HEK293 cells co-expressing Galpha16 to antagonist activity at CXCR2 (unknown origin) stably expressed in HEK293 cells co-expressing Galpha16; assay type: cell-based
[15] = target: T1, C-X-C chemokine receptor type 2; assay: Antagonist activity at CXCR2 (unknown origin) stably expressed in HEK293 cells co-expressing Galpha16 assessed as reduction in IL-8-induced intracellular calcium change incubated for 10 mins by Fluo-4AM dye based fluorescence assay; assay type: functional, cell-based
[16] = target: T1, C-X-C chemokine receptor type 2; assay: Displacement of [125I]IL-8 from human CXCR2 expressed in CHO cells; assay type: cell-based

SMILES: CC[C@@H](Nc1c(Nc2cccc(C(=O)N(C)C)c2O)c(=O)c1=O)c1ccc(C)o1 [NAVARIXIN ANHYDROUS]
fold change (FC) (A375-SM [3]): 4.5
Activity (A375-SM [4]): 45%

SMILES: CC1(C)CC(=O)C(C(=S)Nc2ccccc2)=C(NCc2ccccc2)C1
IC50 [5]: 6.3 µM

SMILES: CCN(CC)CCCCNc1nc2cc(Cl)c(Cl)cc2nc1-c1cc2ccccc2o1
IC50 [6]: 0.23 µM
IC50 [7]: 0.03 µM

SMILES: O=C(Nc1ccc([N+](=O)[O-])cc1O)Nc1ccccc1Br
Activity (SK-OV-3): 42%

SMILES: O=C(Nc1ccccc1)Nc1ccc([N+](=O)[O-])cc1O
Ratio IC50 (Homo sapiens [8]): 433

SMILES: CS(=O)(=O)c1ccc(C(=O)Nc2ccc(F)cc2)c[n+]1[O-]
inhibition [9]: 93%

SMILES: CCSc1nnc2n(-c3ccccc3)c(=O)c3c4c(sc3n12)CCC[C@H]4C
IC50 [10]: 7.8 µM

SMILES: Sc1nc(-c2ccccc2Cl)nn1Cc1cccc(Cl)c1
IC50 [11]: 0.048 µM
bioavailability [12]: 61%

SMILES: CC(=O)c1c(C)oc2c1cc(NS(=O)(=O)c1ccc(C(C)(C)C)cc1)c1ccccc12
IC50 [2]: 7.6 µM

SMILES: N#Cc1ccc(NC(=O)Nc2ccccc2Br)c(O)c1Br
Ratio IC50 (Homo sapiens [8]): 57

Continued, in another order:

IC50 [1]: 0.00012 µM
SMILES: CCN(CC)Nc1c(Nc2cccc(C(=O)N(C)C)c2O)c(=O)c1=O

IC50 [2]: 2.5 µM
SMILES: C[C@@H](NC1=C(C(=O)Nc2ccc(Cl)c(C(F)(F)F)c2)C(=O)CC(C)(C)C1)c1ccccc1

IC50 [13]: 2.9 µM
IC50 [15]: 0.048 µM
SMILES: O=C(c1cccc(Nc2c(NC3C[C@@H]4CC[C@H]3C4)c(=O)c2=O)c1O)N1CCCC1 (stereo not given in full)
Ratio IC50 (Homo sapiens [14]): 60

IC50 [1]: 0.017 µM
SMILES: Cc1ccc([C@H](Nc2c(Nc3cccc(S(=O)(=O)N4CCN(C)CC4)c3O)c(=O)c2=O)[C@H]2CCCS2)o1

IC50 [16]: 0.002 µM
SMILES: CC[C@@H](Nc1c(Nc2ccnc(C(=O)N(C)C)c2O)c(=O)c1=O)c1ccc(C)o1
